# Measurements: patent publication US6914045B2, “Glycopeptide antibiotics” (Wyeth Holdings Corporation, priority 2001, dated 2005)
# Legend:
# Staphylococcus sp. = experiment: in vitro antibacterial evaluation, MIC by broth dilution; assay type: cell-based; conditions: broth dilution, 18 hours at 35° C.; for MIC Staphylococcus haemolyticus (GC 4546): strain GC 4546
# How it was run: (§1)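 Test organisms, which included recent clinical isolates resistant to methicillin, penicillin and/or vancomycin, were inoculated at 5×10^5 CFU/mL into Muller-Hinton II […] containing antibiotic at 64-0.06 μg/mL. Minimum inhibitory concentrations were then read as the lowest level inhibiting growth.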
# Streptococcus sp. = experiment: as above; assay type: cell-based; conditions: broth dilution, 18 hours at 35° C.
# How it was run: as §1
# Enterococcus sp. = experiment: as above; assay type: cell-based; conditions: broth dilution, 18 hours at 35° C.
# How it was run: as §1
# Escherichia coli = experiment: as above; assay type: cell-based; conditions: 18 hours at 35° C.
# How it was run: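 MIC is the lowest antibiotic concentration (tested 64-0.06 μg/mL) preventing growth of a 5×10^5 CFU/mL inoculum. Determined by broth dilution in Mueller-Hinton II medium following NCCLS standard M7-A2.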
# [1] = anatomic pathology (histopathology of heart and kidney) in mice; assay type: in vivo; conditions: CD-1 mice, 20 mg/kg intravenously daily for 9 days, necropsy day 10, microscopic histopathology
# Method: Samples of tissues from necropsied mice were formalin-fixed, paraffin-embedded, sectioned, stained with hematoxylin and eosin, and examined microscopically. Histopathologic findings were recorded. These findings were subjectively graded on a scale corresponding to slight, mild, moderate, marked and severe as compared to untreated controls.
compound,measurement,setting,value
"CC(c1ccccc1)C1NC(=O)CNC(=O)C(CO)NC(=O)C(C(O)C2CN(Cc3ccc(-c4ccccc4)cc3)C(=N)N2C2OC(CO)C(O)C(O)C2O)NC(=O)C(C(O)C2CNC(=NCc3ccc(-c4ccccc4)cc3)N2Cc2ccc(-c3ccccc3)cc2)NC(=O)C(Cc2ccc(OC3OC(CO)C(OC4OC(CO)C(O)C(O)C4O)C(O)C3O)cc2)NC1=O (stereo not drawn) [Example 66, Cyclo[glycyl-β-methylphenylalanyl-O-(4-O-hexopyranosylhexopyranosyl)tyrosl-3-[3-(4-phenylbenzyl)-2-(4-phenylbenzyl)iminolimidazolidin-4-yl]seryl-3-[3-hexopyranosyl-2-imino-1-(4-phenylbenzyl)-imidazolidin-4-yl]serylseryl]]",MIC Staphylococcus aureus-SMITH (GC 4543),Staphylococcus sp.; strain GC 4543,8 µg/mL
same,MIC Staphylococcus haemolyticus (GC 4546),Staphylococcus sp.,4 µg/mL
same,MIC Streptococcus agalactiae (GC 4564),Streptococcus sp.,32 µg/mL
same,MIC Streptococcus pneumoniae (ATCC 6301),Streptococcus sp.,32 µg/mL
same,MIC Streptococcus pneumoniae (GC 1894),Streptococcus sp.,32 µg/mL
same,MIC Streptococcus pneumoniae (GC 4565),Streptococcus sp.,64 µg/mL
same,MIC Streptococcus pyogenes (GC 4563),Streptococcus sp.,16 µg/mL
same,MIC Streptococcus pneumoniae (ATCC 6301),Streptococcus sp.; strain ATCC 6301,32 µg/mL
same,MIC Streptococcus pneumoniae (GC 1894),Streptococcus sp.; strain GC 1894,32 µg/mL
same,MIC Streptococcus pyogenes (GC 4563),Streptococcus sp.; strain GC 4563,16 µg/mL
same,MIC Streptococcus agalactiae (GC 4564),Streptococcus sp.; strain GC 4564,32 µg/mL
same,MIC Streptococcus pneumoniae (GC 4565),Streptococcus sp.; strain GC 4565,64 µg/mL
same,MIC Enterococcus avium (GC 4558),Enterococcus sp.,4 µg/mL
same,MIC Enterococcus faecalis (ATCC 29212),Enterococcus sp.,16 µg/mL
same,MIC Enterococcus faecalis (GC 2242),Enterococcus sp.,16 µg/mL
same,MIC Enterococcus faecalis (GC 2691),Enterococcus sp.,32 µg/mL
same,MIC Enterococcus faecalis (GC 3059),Enterococcus sp.,32 µg/mL
same,MIC Enterococcus faecalis (GC 4552),Enterococcus sp.,32 µg/mL
same,MIC Enterococcus faecalis (GC 4553),Enterococcus sp.,8 µg/mL
same,MIC Enterococcus faecalis (GC 4554),Enterococcus sp.,64 µg/mL
same,MIC Enterococcus faecalis (GC 6189),Enterococcus sp.,32 µg/mL
same,MIC Enterococcus faecium (GC 2243),Enterococcus sp.,8 µg/mL
same,MIC Enterococcus faecium (GC 4556),Enterococcus sp.,32 µg/mL
same,MIC Enterococcus faecium (GC 4557),Enterococcus sp.,4 µg/mL
same,MIC Enterococcus faecalis (GC 2242),Enterococcus sp.; strain GC 2242,16 µg/mL
same,MIC Enterococcus faecalis (GC 2691),Enterococcus sp.; strain GC 2691,32 µg/mL
same,MIC Enterococcus faecalis (GC 3059),Enterococcus sp.; strain GC 3059,32 µg/mL
same,MIC Escherichia coli (ATCC 25922),Escherichia coli,>128 µg/mL
same,MIC Escherichia coli (GC 4559),Escherichia coli,>128 µg/mL
same,MIC Escherichia coli (GC 4560),Escherichia coli,4 µg/mL
same,"Anatomical Pathology (Day 10), Heart",[1],0
same,"Anatomical Pathology (Day 10), Kidney",[1],0
"CN=C1N(C)CC(C(O)C2NC(=O)C(Cc3ccc(OC4OC(CO)C(OC5OC6COC7(OC6C(O)C5O)C5CC6CC(C5)CC7C6)C(O)C4O)cc3)NC(=O)C(C(C)c3ccccc3)NC(=O)CNC(=O)C(CO)NC(=O)C(C(O)C3CN(C)C(=NC)N3C3OC(CO)C(O)C(O)C3O)NC2=O)N1C (stereo not drawn) [Example 81, Cyclo[glycyl-β-methylphenylalanyl-O-[4-O-[4,6-O-(2-adamantylidene)hexopyranosyl]hexopyranosyl]tyrosyl-3-[1,3-dimethyl-2-(methylimino)imidazolidin-4-yl]seryl-3-[3-hexopyranosyl-1-methyl-2-(methylimino)imidazolidin-4-yl]serylseryl]]",MIC Staphylococcus haemolyticus (GC 4546),Staphylococcus sp.,>128 µg/mL
same,MIC Streptococcus agalactiae (GC 4564),Streptococcus sp.,128 µg/mL
same,MIC Streptococcus pneumoniae (ATCC 6301),Streptococcus sp.,>128 µg/mL
same,MIC Streptococcus pneumoniae (GC 1894),Streptococcus sp.,128 µg/mL
same,MIC Streptococcus pneumoniae (GC 4565),Streptococcus sp.,>128 µg/mL
same,MIC Streptococcus pyogenes (GC 4563),Streptococcus sp.,>128 µg/mL
same,MIC Enterococcus avium (GC 4558),Enterococcus sp.,128 µg/mL
same,MIC Enterococcus faecalis (ATCC 29212),Enterococcus sp.,>128 µg/mL
same,MIC Enterococcus faecalis (GC 2242),Enterococcus sp.,>128 µg/mL
same,MIC Enterococcus faecalis (GC 2691),Enterococcus sp.,>128 µg/mL
same,MIC Enterococcus faecalis (GC 3059),Enterococcus sp.,>128 µg/mL
same,MIC Enterococcus faecalis (GC 4552),Enterococcus sp.,>128 µg/mL
same,MIC Enterococcus faecalis (GC 4553),Enterococcus sp.,128 µg/mL
same,MIC Enterococcus faecalis (GC 4554),Enterococcus sp.,>128 µg/mL
same,MIC Enterococcus faecalis (GC 6189),Enterococcus sp.,>128 µg/mL
same,MIC Enterococcus faecium (GC 2243),Enterococcus sp.,>128 µg/mL
same,MIC Enterococcus faecium (GC 4556),Enterococcus sp.,>128 µg/mL
same,MIC Enterococcus faecium (GC 4557),Enterococcus sp.,128 µg/mL
same,MIC Escherichia coli (ATCC 25922),Escherichia coli,>128 µg/mL
same,MIC Escherichia coli (GC 4559),Escherichia coli,>128 µg/mL
same,MIC Escherichia coli (GC 4560),Escherichia coli,128 µg/mL
same,"Anatomical Pathology (Day 10), Heart",[1],0
same,"Anatomical Pathology (Day 10), Kidney",[1],0
